Data on 10 compounds can be found in patent publication US9751885B2, “Cyclopropanamine compound and use thereof” (Takeda Pharmaceutical Company Limited, priority 2012, dated 2017).

pIC50: −log10 of the molar value. Where a name gives a salt, the structure may show the parent alone. Read-outs that look alike come from different tables or passages of the source. Marks after values point to notes of the source that are not given here. A value given as a limit tells only on which side of the number the result lay.

Data set [1] deals with MAO-A enzyme (Homo sapiens (Human), UniProt P21397). The experiment in a line: Measurement of MAO-A inhibitory activity (MAO-Glo Assay). Format: biochemical.
Chain of MAO-A enzyme (P21397 whole entry): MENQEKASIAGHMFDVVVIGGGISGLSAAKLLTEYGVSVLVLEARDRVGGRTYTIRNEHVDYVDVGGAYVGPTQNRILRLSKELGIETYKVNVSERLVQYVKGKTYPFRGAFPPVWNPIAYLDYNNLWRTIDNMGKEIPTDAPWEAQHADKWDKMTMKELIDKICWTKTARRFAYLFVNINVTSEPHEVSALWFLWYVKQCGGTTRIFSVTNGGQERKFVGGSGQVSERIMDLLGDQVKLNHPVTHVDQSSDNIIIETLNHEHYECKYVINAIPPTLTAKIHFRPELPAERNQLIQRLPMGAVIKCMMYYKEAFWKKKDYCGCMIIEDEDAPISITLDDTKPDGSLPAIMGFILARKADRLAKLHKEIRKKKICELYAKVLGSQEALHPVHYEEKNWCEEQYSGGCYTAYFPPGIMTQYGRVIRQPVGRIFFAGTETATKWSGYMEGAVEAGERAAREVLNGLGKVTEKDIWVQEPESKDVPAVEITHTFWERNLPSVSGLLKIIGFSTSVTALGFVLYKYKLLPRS
Experimental: The MAO-A inhibitory activity evaluation described below followed the protocol of MAO-Glo (registered trademark) Assay of Promega KK.
A test compound dissolved in 4% DMSO was added by 12.5 μL to 25 μL reaction solution (100 mM HEPES (pH 7.5), 5% glycerol) containing 400 ng of MAO-A enzyme (Sigma-Aldrich Co. LLC.), and the mixture was reacted at room temperature for 10 min. […] After reaction at room temperature for 60 min, Luciferine detection reagent (Promega KK) (50 μL) was added to terminate the reaction. After reaction at room temperature for min with stirring, the luminescence was measured by Envision (PerkinElmer). The MAO-A inhibitory rate (%) of the test compound was calculated by the following formula. inhibitory rate(%)=(1−(test compound count−blank)÷(control−blank))×100
The count of the MAO-A enzyme reaction mixture under compound non-addition conditions is indicated as control, and the count under compound non-addition and MAO-A enzyme non-addition conditions is indicated as blank.
Data set [2] deals with human LSD1(172-833) (Homo sapiens (Human), UniProt O60341). The experiment in a line: Measurement of LSD1 inhibitory activity (time-resolved fluorescence, biotin-histone H3 mono methylated K4 peptide). Format: biochemical. The method in brief:
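Remaining signal detected by TR-FRET after 60 min with europium anti-histone H3 antibody and streptavidin-XL665 in potassium fluoride/0.1% BSA.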

Data set [3] has as its system white blood cell number, red blood cell number, platelet number. As to the kind of experiment: Evaluation of blood cell number in mouse. Format: in vivo. The note with it: oral, Day 2 after administration. The essentials: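 Male ICR mice dosed orally at 1, 10, 50 or 100 mg/kg (suspension in 0.5% methylcellulose/0.02% citric acid/water); whole blood collected on Day 2. White cell, red cell and platelet counts per unit volume by automated haematology analyser, expressed as % of mean of untreated control group.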

In data set [4] the target is MAO-B enzyme (Homo sapiens (Human), UniProt P27338). As to the kind of experiment: Measurement of MAO-B inhibitory activity (MAO-Glo Assay).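 Also: luminescence read-out, compound preincubated 10 min with enzyme then reacted 60 min at room temperature, inhibition relative to enzyme reaction without compound, blank lacking enzyme and compound.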 The note with it: read-out: MAO-B IC50 value.
Chain of MAO-B enzyme (P27338 whole entry): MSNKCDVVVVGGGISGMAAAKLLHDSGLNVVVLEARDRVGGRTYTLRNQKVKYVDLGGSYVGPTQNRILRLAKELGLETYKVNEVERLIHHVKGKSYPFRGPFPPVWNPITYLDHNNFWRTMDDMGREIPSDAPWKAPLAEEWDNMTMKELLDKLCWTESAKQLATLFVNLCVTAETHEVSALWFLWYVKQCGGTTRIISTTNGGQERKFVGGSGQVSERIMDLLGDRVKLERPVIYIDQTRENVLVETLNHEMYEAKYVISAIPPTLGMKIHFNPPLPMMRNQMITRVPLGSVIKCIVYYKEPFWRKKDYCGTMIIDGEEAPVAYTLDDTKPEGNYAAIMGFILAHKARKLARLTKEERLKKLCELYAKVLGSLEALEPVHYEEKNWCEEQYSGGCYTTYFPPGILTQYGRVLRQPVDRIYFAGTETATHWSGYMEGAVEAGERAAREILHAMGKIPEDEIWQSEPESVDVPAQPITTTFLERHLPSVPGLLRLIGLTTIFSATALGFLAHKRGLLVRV
A short description of data set [5]: Evaluation of hippocampal distribution in mouse. Format: in vivo. The note with it: male ICR mice, 10 mg/kg oral; for concentration at 0.5 h: 0.5 hr after administration. The essentials:
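Male ICR mice dosed orally at 10 mg/kg as suspension in 0.5% methylcellulose/0.02% citric acid/water. Plasma and hippocampus sampled together at 0.5, 1 or 1.5 h; LC/MS/MS concentrations gave hippocampus/plasma ratio.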

The test system of data set [6] is Gad1 H3K4me2 level in rat primary culture neurons. The experiment in a line: Gad1 H3K4 methylation induction activity in rat primary culture neurons (ChIP-qPCR). Format: cell-based. The conditions noted are these: control without compound = 100%; for activity at 1 µM / activity at 10 µM: Rattus norvegicus, Neuron, 72 h; for activity at 1 µM: read-out: Gad1 H3K4me2 induction activity (%), compound 1 μM, 3 days, rat primary culture neurons; for activity at 10 µM: read-out: Gad1 H3K4me2 induction activity (%), compound 10 μM, 3 days, rat primary culture neurons; for Gad1 H3K4me2 induction activity (%): 3 days, rat primary culture neurons. The method, then: Gad1 H3K4 Methylation Induction Activity in Rat Primary Culture Neurons
Thereafter, the compound was added to final concentrations of 1 or 10 μM, and the cells were further cultured for 3 days. The culture supernatant was aspirated, ice-cold PBS was added, and the cell suspension was collected on ice using CELL SCRAPER (IWAKI). […] (750 μL). Furthermore, 0.3% NP40/cell lysis buffer 1 (750 μL) was added, and the cells were lysed by incubating for 5 min on ice.
Using the DNA obtained by the chromatin immunoprecipitation as a template, quantitative PCR of the Gad1 gene upstream genomic region was performed, and the measurement value was taken as the Gad1 H3K4me2 level. […] The Gad1 H3K4me2 induction by the compound was expressed by the H3K4me2 level when the compound was added, as compared to the H3K4me2 level of the control (without addition of the compound) as 100%.
A general note: Real-time PCR tracks product formation cycle by cycle.

[7] abbreviates: hippocampus, 1 hr after administration, read-out: hippocampus concentration (mean).
The mark [8] stands for this setting: plasma, 1 hr after administration, read-out: plasma concentration (mean).
Setting [9] is: hippocampus, read-out: hippocampus concentration (mean).
Where [10] appears, read: plasma, read-out: plasma concentration (mean).

A word on the pIC50: it is the IC50 on a negative log10 scale, so that one unit is a factor of ten. With `Cc1cc(NC(=O)c2cccc([C@@H]3C[C@H]3NCC3CCOCC3)c2)no1` (relative stereo) [Example 231, N-(5-methyl-1,2-oxazol-3-yl)-3-(trans-2-((tetrahydro-2H-pyran-4-ylmethyl)amino)cyclopropyl)benzamide], the negative-log IC50 (pIC50) is < 5.00 in data set [1], > 7.00 in data set [2] and < 5.00 in data set [4]. The “platelet number, percentage of compound administration group compared to control group, mean” value (“platelet number, percentage” for short) stood at 93.7% in data set [3] (10 mg/kg) and 90.4% in data set [3] (100 mg/kg). Further, the “red blood cell number, percentage of compound administration group compared to control group, mean” value (“red blood cell number, percentage” below) in data set [3] (10 mg/kg) was determined as 99.7%; in data set [3] (100 mg/kg) it was 95.0%. The “white blood cell number, percentage of compound administration group compared to control group, mean” value (“white blood cell number, percentage” for short) in data set [3] (10 mg/kg) is recorded as 75.7%; in data set [3] (100 mg/kg), 77.1%. Moreover, the concentration at 1 h amounted to 527 ng/g in data set [5] (setting [7]) and 117 ng/mL in data set [5] (setting [8]). For the same compound, the Kp at 1 h in data set [5] (hippocampus/plasma, 1 hr after administration, read-out: hippocampus/plasma concentration ratio (mean)) was 4.5.

As for `Cc1nnc(NC(=O)c2ccc(C)c([C@@H]3C[C@H]3NC3CCOCC3)c2)s1` (relative stereo) [Example 184, 4-methyl-N-(5-methyl-1,3,4-thiadiazol-2-yl)-3-(trans-2-(tetrahydro-2H-pyran-4-ylamino)cyclopropyl)benzamide dihydrochloride], in data set [6], the activity at 1 µM worked out at 136% and the activity at 10 µM was found to be 122%.

Consider `O=C(Nc1ccc(N2CCCC2=O)cc1)c1cccc([C@@H]2C[C@H]2NCC2CC2)c1` (relative stereo) [Example 82, 3-(trans-2-((cyclopropylmethyl)amino)cyclopropyl)-N-(4-(2-oxopyrrolidin-1-yl)phenyl)benzamide hydrochloride], for which the pIC50 was < 5.00 in data set [1], > 7.00 in data set [2] and < 5.00 in data set [4]. In addition, the “platelet number, percentage” value is reported as 104.6% in data set [3] (10 mg/kg) and 94.6% in data set [3] (100 mg/kg). Moreover, the “red blood cell number, percentage” value was determined as 100.5% in data set [3] (10 mg/kg) and 99.9% in data set [3] (100 mg/kg). Besides, the “white blood cell number, percentage” value in data set [3] (10 mg/kg) came to 81.2%; in data set [3] (100 mg/kg), 135.5%. Also, the concentration at 0.5 h in data set [5] (setting [9]) stood at 58 ng/g; in data set [5] (setting [10]) it was 5610 ng/mL.

As for `Cc1nnc(NC(=O)c2cccc(C3CC3NCC3CC3)c2)s1` (single isomer, unassigned) [Example 98, 3-(trans-2-((cyclopropylmethyl)amino)cyclopropyl)-N-(5-methyl-1,3,4-thiadiazol-2-yl)benzamide hydrochloride (Optical Isomer, Retention Time Long)], in data set [3] (1 mg/kg), the “platelet number, percentage” value is reported as 105.4^b %; the “red blood cell number, percentage” value is reported as 103.6^b %; the “white blood cell number, percentage” value is listed as 96.5^b %. In addition, in data set [3] (10 mg/kg), the “platelet number, percentage” value was 102.0^c %; the “red blood cell number, percentage” value was 105.6^c %; the “white blood cell number, percentage” value was 106.5^c %. Further, in data set [6], the activity at 1 µM was 114%. The “Gad1 H3K4me2 induction activity (%)” value in data set [6] (compound 10 μM) is given as 133%.

In the case of `Cc1nnc(NC(=O)c2cccc(C3CC3NCC3CC3)c2)s1` (single isomer, unassigned) [Example 97, 3-(trans-2-((cyclopropylmethyl)amino)cyclopropyl)-N-(5-methyl-1,3,4-thiadiazol-2-yl)benzamide hydrochloride (Optical Isomer, Retention Time Short)], in data set [3] (1 mg/kg), the “platelet number, percentage” value is recorded as 99.4^b %; the “red blood cell number, percentage” value is 102.7^b %; the “white blood cell number, percentage” value is reported as 114.4^b %. Moreover, in data set [3] (10 mg/kg), the “platelet number, percentage” value is listed as 105.2^c %; the “red blood cell number, percentage” value is recorded as 105.0^c %; the “white blood cell number, percentage” value is on record as 100.7^c %. The “Gad1 H3K4me2 induction activity (%)” value in data set [6] (compound 1 μM) was 100%. Besides, the “Gad1 H3K4me2 induction activity (%)” value in data set [6] (compound 10 μM) amounted to 111%.

With `Cn1cc(NC(=O)c2cccc([C@@H]3C[C@H]3NCC(C)(C)C)c2)cn1` (relative stereo) [Example 155, 3-(trans-2-((2,2-dimethylpropyl)amino)cyclopropyl)-N-(1-methyl-1H-pyrazol-4-yl)benzamide dihydrochloride], in data set [6], the activity at 1 µM is 104% and the activity at 10 µM came out at 106%.

On to `Cn1cc(NC(=O)c2cccc([C@@H]3C[C@H]3NCC3CC3)c2)cn1` (relative stereo) [Example 59, 3-(trans-2-((cyclopropylmethyl)amino)cyclopropyl)-N-(1-methyl-1H-pyrazol-4-yl)benzamide dihydrochloride], for which, in data set [3] (10 mg/kg), the “platelet number, percentage” value is recorded as 91.9%; the “red blood cell number, percentage” value was found to be 101.1%; the “white blood cell number, percentage” value is recorded as 128.1%. Also, in data set [3] (100 mg/kg), the “platelet number, percentage” value was determined as 91.2%; the “red blood cell number, percentage” value amounted to 93.3%; the “white blood cell number, percentage” value was 98.8%. In data set [6], the activity at 1 µM was determined as 206% and the activity at 10 µM was 161%.

Turning to `O=C(Nc1cnn(CC2CC2)c1)c1cccc([C@@H]2C[C@H]2NCC2CCOCC2)c1` (relative stereo) [Example 87, N-(1-(cyclopropylmethyl)-1H-pyrazol-4-yl)-3-(trans-2-((tetrahydro-2H-pyran-4-ylmethyl)amino)cyclopropyl)benzamide dihydrochloride], the pIC50 in data set [1] is < 5.00; in data set [2] it was > 7.00; in data set [4], < 5.00. For the same compound, the results for the “platelet number, percentage” value in data set [3] (10 mg/kg) and in data set [3] (100 mg/kg) were 111.7% and 105.2%, respectively. Besides, the entries for the “red blood cell number, percentage” value in data set [3] (10 mg/kg) and in data set [3] (100 mg/kg) were 96.8% and 100.7%, respectively. Also, the results for the “white blood cell number, percentage” value in data set [3] (10 mg/kg) and in data set [3] (100 mg/kg) were 94.6% and 101.1%, respectively. For the same compound, the concentration at 1 h in data set [5] (setting [7]) is 43 ng/g; in data set [5] (setting [8]) it was 251 ng/mL.

On to `Cc1ncc(NC(=O)c2cccc([C@@H]3C[C@H]3NCC3CC3)c2)s1` (relative stereo) [Example 79, 3-(trans-2-((cyclopropylmethyl)amino)cyclopropyl)-N-(2-methyl-1,3-thiazol-5-yl)benzamide dihydrochloride], for which the pIC50 was < 5.00 in data set [1], > 7.00 in data set [2] and < 5.00 in data set [4]. The “platelet number, percentage” value in data set [3] (10 mg/kg) was 92.4%; in data set [3] (100 mg/kg), 92.8%. Also, the “red blood cell number, percentage” value in data set [3] (10 mg/kg) worked out at 101.1%; in data set [3] (100 mg/kg) it was 101.6%. In addition, the “white blood cell number, percentage” value in data set [3] (10 mg/kg) came out at 122.4%; in data set [3] (100 mg/kg), 96.3%. Also, the concentration at 0.5 h came out at 569 ng/g in data set [5] (setting [9]) and 759 ng/mL in data set [5] (setting [10]).

`Cc1nnc(NC(=O)c2cccc([C@@H]3C[C@H]3NC3CCC(F)(F)CC3)c2)s1` (relative stereo) [Example 166, 3-(trans-2-((4,4-difluorocyclohexyl)amino)cyclopropyl)-N-(5-methyl-1,3,4-thiadiazol-2-yl)benzamide dihydrochloride]: in data set [6], the activity at 1 µM was found to be 98% and the activity at 10 µM came out at 147%.
